Target: T1, B. subtilis DnaA (Bacillus subtilis, UniProt P05648)
T1 construct: full-length, cloned in pSP015 with His14-SUMO-FLAG3 tag; His14-SUMO cleaved (FLAG3 kept where present); E. coli BL21(DE3)-pLysS
Assay: competition with TNP-ATP fluorescence
Conditions: pH 8, 5 mM magnesium acetate, 25 C; competitive with TNP-ATP, nucleotide binding pocket

T1 sequence (P05648 whole entry): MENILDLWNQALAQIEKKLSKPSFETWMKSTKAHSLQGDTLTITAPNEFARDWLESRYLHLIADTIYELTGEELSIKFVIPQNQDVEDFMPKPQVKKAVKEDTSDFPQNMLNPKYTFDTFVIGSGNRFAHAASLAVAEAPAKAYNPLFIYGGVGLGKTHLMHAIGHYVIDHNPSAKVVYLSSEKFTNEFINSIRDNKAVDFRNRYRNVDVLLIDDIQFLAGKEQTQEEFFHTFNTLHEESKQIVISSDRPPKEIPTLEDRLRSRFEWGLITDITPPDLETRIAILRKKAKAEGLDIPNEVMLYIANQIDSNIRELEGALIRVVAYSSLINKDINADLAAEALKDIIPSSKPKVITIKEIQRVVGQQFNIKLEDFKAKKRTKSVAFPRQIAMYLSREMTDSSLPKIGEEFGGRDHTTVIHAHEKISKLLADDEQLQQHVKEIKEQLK

## Nc1ncnc2c1ncn2[C@@H]1O[C@H](COP(=O)(O)OP(=O)(O)OP(=O)(O)O)[C@@H](O)[C@H]1O [ATP]
  competition with TNP-ATP fluorescence: can be competed away by addition of unlabelled ATP

— publication PMC8287927, “Evidence for a chromosome origin unwinding system broadly conserved in bacteria” (Nucleic Acids Research, 2021)
